Key:
[1] = target: T1, tyrosine decarboxylase (TyrDC) (Enterococcus faecalis, UniProt P0DTQ4); test: enzyme kinetics of TyrDC in vitro; type: biochemical
T1 sequence (P0DTQ4 1-620): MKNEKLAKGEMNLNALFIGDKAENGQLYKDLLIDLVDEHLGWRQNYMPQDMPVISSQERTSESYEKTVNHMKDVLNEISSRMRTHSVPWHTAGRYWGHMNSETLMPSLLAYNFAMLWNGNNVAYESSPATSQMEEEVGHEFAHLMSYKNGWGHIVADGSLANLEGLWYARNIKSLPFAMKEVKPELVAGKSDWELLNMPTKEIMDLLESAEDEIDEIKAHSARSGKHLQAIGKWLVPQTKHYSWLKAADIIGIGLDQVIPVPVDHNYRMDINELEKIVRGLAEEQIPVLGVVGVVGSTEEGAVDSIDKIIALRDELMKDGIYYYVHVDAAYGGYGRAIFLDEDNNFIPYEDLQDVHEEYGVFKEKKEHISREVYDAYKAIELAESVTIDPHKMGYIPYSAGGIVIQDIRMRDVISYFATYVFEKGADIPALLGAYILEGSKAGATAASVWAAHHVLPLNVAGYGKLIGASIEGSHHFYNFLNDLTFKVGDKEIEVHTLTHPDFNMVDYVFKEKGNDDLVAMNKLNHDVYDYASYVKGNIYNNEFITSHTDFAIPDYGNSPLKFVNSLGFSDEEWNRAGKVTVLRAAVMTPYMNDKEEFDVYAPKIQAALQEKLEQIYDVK

[2] = target: T1, tyrosine decarboxylase (TyrDC)

Km [2] [µM] | Structure (SMILES) | enzyme kinetics of TyrDC in vitro [1]
– | N[C@@H](Cc1ccc(O)cc1)C(=O)O [L-tyrosine] | In vitro characterization of TyrDC revealed a fivefold higher catalytic efficiency toward L-tyrosine compared with L-dopa
1500 | N[C@@H](Cc1ccc(O)c(O)c1)C(=O)O [L-dopa] | –

From article PMC7745125 (Science (New York, N.y.), 2019)
